Results on 28 compounds are retold here after patent publication US10766869B2, “Triazoles for the treatment of demyelinating dieases” (Vertex Pharmaceuticals Incorporated, priority 2015, dated 2020).

This test relates to primary rat mixed cortical cells. Description: In vitro myelination assay (MBP positive myelin strands, fold myelin pixels above background). The test is classed as cell-based. The settings on record: Rattus norvegicus; for fold induction at 1 µM: 1.0 μM compound; for fold induction at 10 µM: 10.0 μM compound. Put shortly: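 Compounds at 1.0 and 10.0 μM were incubated 14 days with dissociated P1 rat cortical cells, which were then fixed and immunostained for MBP. Myelination was scored as fold MBP myelin pixels per well over the no-compound baseline.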

Where [1] appears, read: relative to baseline of no added compound, read-out: Fold myelin pixels above background.
The mark [2] stands for this setting: relative to baseline of no added compound, read-out: Fold myelin pixels above background, 1.0 μM.
Setting [3] is: relative to baseline of no added compound, read-out: Fold myelin pixels above background, 10.0 μM.
[4] abbreviates: read-out: Fold myelin pixels above background relative to baseline of no added compound.

Structures are written as SMILES. Like-named read-outs stand apart in the source and are kept apart here.

As to `Cc1cc(Nc2ncn(-c3cc(F)cc(F)c3)n2)cc(N2CC(N3CCOC(C)(C)C3)C2)c1` [Compound 602, 1-(3,5-difluorophenyl)-N-[3-[3-(2,2-dimethylmorpholin-4-yl)azetidin-1-yl]-5-methyl-phenyl]-1,2,4-triazol-3-amine], under setting [1], the fold induction at 1 µM lay within 1 to 10 and the fold induction at 10 µM was in the range of 1 to 10.

For the compound `Cc1cc(Nc2ncn(-c3ccc(F)c(F)c3)n2)cc(OC2CCCN(C3COC3)C2)c1` (centres unmarked) [Compound 590, 1-(3,4-difluorophenyl)-N-[3-methyl-5-[[1-(oxetan-3-yl)-3-piperidyl]oxy]phenyl]-1,2,4-triazol-3-amine], under setting [1], the fold induction at 1 µM fell in the range of 10 to 100 and the fold induction at 10 µM fell in the range of 1 to 10.

As to `CCc1cc(Nc2ncn(-c3ccc(C)c(Cl)c3)n2)cc(N2CCN(C3COC3)CC2)c1` [Compound 715, 1-(3-chloro-4-methyl-phenyl)-N-[3-ethyl-5-[4-(oxetan-3-yl)piperazin-1-yl]phenyl]-1,2,4-triazol-3-amine], under setting [1], the fold induction at 1 µM fell in the range of 10 to 100 and the fold induction at 10 µM fell in the range of 1 to 10.

Consider `Cc1cc(Nc2ncn(-c3ccnc(O)c3)n2)cc(N2CCOCC2)c1` [Compound 155, 4-[3-(3-methyl-5-morpholino-anilino)-1,2,4-triazol-1-yl]pyridin-2-ol], for which the fold induction at 1 µM under setting [2] fell in the range of 100 to 1000. The fold induction at 10 µM under setting [3] was 100 to 1000.

For the compound `FC(F)c1cc(Nc2ncn(-c3ccccc3)n2)cc(N2CCN(C3COC3)CC2)c1` [Compound 26, N-[3-(difluoromethyl)-5-[4-(oxetan-3-yl)piperazin-1-yl]phenyl]-1-phenyl-1,2,4-triazol-3-amine], under setting [2], the fold induction at 1 µM lay within 100 to 1000. Besides, under setting [3], the fold induction at 10 µM is at most 1.

On to `Fc1cc(F)cc(-n2cnc(Nc3cc(C4CCOCC4)nc(C4CC4)c3)n2)c1` [Compound 407, 2-cyclopropyl-N-[1-(3,5-difluorophenyl)-1,2,4-triazol-3-yl]-6-tetrahydropyran-4-yl-pyridin-4-amine], for which, under setting [1], the fold induction at 1 µM is 1000 to 10000 and the fold induction at 10 µM is at most 1.

Turning to `Cc1cc(Nc2ncn(-c3cc(F)cc(F)c3)n2)cc(O[C@H]2CCCN(C3COC3)C2)c1` (single isomer, unassigned) [Compound 700], under setting [1], the fold induction at 1 µM was 10 to 100 and the fold induction at 10 µM was at most 1.

For `COc1cccc(-n2cnc(Nc3cc(C)cc(N4CCN(C5COC5)CC4)c3)n2)c1` [Compound 86, 1-(3-methoxyphenyl)-N-[3-methyl-5-[4-(oxetan-3-yl)piperazin-1-yl]phenyl]-1,2,4-triazol-3-amine], the fold induction at 1 µM under setting [2] fell in the range of 100 to 1000. For the same compound, under setting [3], the fold induction at 10 µM fell in the range of 100 to 1000.

For the compound `Cc1cc(Nc2ncn(-c3cc(F)cc(F)c3)n2)cc(N2CCC(N3CCOCC3C)CC2)c1` (centres unmarked) [Compound 988, 1-(3,5-difluorophenyl)-N-[3-methyl-5-[4-(3-methylmorpholin-4-yl)-1-piperidyl]phenyl]-1,2,4-triazol-3-amine], under setting [4], the fold induction at 1 µM is 10 to 100 and the fold induction at 10 µM lay within 1 to 10.

In the case of `COCC1CCN(c2cc(C)cc(Nc3ncn(-c4ccncc4)n3)c2)CC1` [Compound 385, N-[3-[4-(methoxymethyl)-1-piperidyl]-5-methyl-phenyl]-1-(4-pyridyl)-1,2,4-triazol-3-amine], the fold induction at 1 µM under setting [2] lay within 100 to 1000. Besides, the fold induction at 10 µM under setting [3] was 100 to 1000.

Consider `Cc1cc(Nc2ncn(-c3cccc(F)c3)n2)cc(C2CCN(C3COC3)C2)c1` (centres unmarked) [Compound 382, 1-(3-fluorophenyl)-N-[3-methyl-5-[1-(oxetan-3-yl)pyrrolidin-3-yl]phenyl]-1,2,4-triazol-3-amine], for which, under setting [2], the fold induction at 1 µM was in the range of 1000 to 10000. Under setting [3], the fold induction at 10 µM is 1 to 10.

On to `Cc1cc(Nc2ncn(-c3ccccc3)n2)cc(N2CC(C)OC(C)C2)c1` (centres unmarked) [Compound 306, N-[3-(2,6-dimethylmorpholin-4-yl)-5-methyl-phenyl]-1-phenyl-1,2,4-triazol-3-amine], for which the fold induction at 1 µM under setting [2] was at most 1. Also, the fold induction at 10 µM under setting [3] is at most 1.

For the compound `COc1cc(Nc2ncn(-c3cccc(C(F)(F)F)c3)n2)cc(N2CCN(C3COC3)CC2)c1` [Compound 662, N-[3-methoxy-5-[4-(oxetan-3-yl)piperazin-1-yl]phenyl]-1-[3-(trifluoromethyl)phenyl]-1,2,4-triazol-3-amine], under setting [1], the fold induction at 1 µM is 10 to 100 and the fold induction at 10 µM is at most 1.

For `CCOCCN1CCN(c2cc(C)cc(Nc3ncn(-c4cc(F)cc(F)c4)n3)c2)CC1` [Compound 973, 1-(3,5-difluorophenyl)-N-[3-[4-(2-ethoxyethyl)piperazin-1-yl]-5-methyl-phenyl]-1,2,4-triazol-3-amine], under setting [4], the fold induction at 1 µM was 10 to 100 and the fold induction at 10 µM is at most 1.

As to `COCC(=O)N1CC(C)(Nc2cc(C)cc(Nc3ncn(-c4cc(F)cc(F)c4)n3)c2)C1` [Compound 1075, 1-[3-[3-[[1-(3,5-difluorophenyl)-1,2,4-triazol-3-yl]amino]-5-methyl-anilino]-3-methyl-azetidin-1-yl]-2-methoxy-ethanone], under setting [4], the fold induction at 1 µM was in the range of 1 to 10 and the fold induction at 10 µM was at most 1.

As for `Cc1cc(Nc2ncn(-c3cc(F)cc(F)c3)n2)cc(N2CCC(OCCN(C)C)CC2)c1` [Compound 933, 1-(3,5-difluorophenyl)-N-[3-[4-[2-(dimethylamino)ethoxy]-1-piperidyl]-5-methyl-phenyl]-1,2,4-triazol-3-amine], under setting [4], the fold induction at 1 µM fell in the range of 1 to 10 and the fold induction at 10 µM was at most 1.

`Cc1cc(Nc2ncn(-c3cc(F)cc(F)c3)n2)cc(N2CCOC(CN(C)C)C2)c1` (centres unmarked) [Compound 1018, 1-(3,5-difluorophenyl)-N-[3-[2-[(dimethylamino)methyl]morpholin-4-yl]-5-methyl-phenyl]-1,2,4-triazol-3-amine]: under setting [4], the fold induction at 1 µM is 10 to 100 and the fold induction at 10 µM was at most 1.

Take `COCC1CN(c2cc(C)cc(Nc3ncn(-c4cc(F)cc(F)c4)n3)c2)CCO1` (centres unmarked) [Compound 325, 1-(3,5-difluorophenyl)-N-[3-[2-(methoxymethyl)morpholin-4-yl]-5-methyl-phenyl]-1,2,4-triazol-3-amine]: the fold induction at 1 µM under setting [2] was 10 to 100. The fold induction at 10 µM under setting [3] fell in the range of 10 to 100.

Regarding `Cc1cc(Nc2ncn(-c3cccc(F)c3)n2)cc(C2CN(C3COC3)C2)c1` [Compound 36, 1-(3-fluorophenyl)-N-[3-methyl-5-[1-(oxetan-3-yl)azetidin-3-yl]phenyl]-1,2,4-triazol-3-amine], the fold induction at 1 µM under setting [2] was 1000 to 10000. In addition, under setting [3], the fold induction at 10 µM was at most 1.

Take `Cc1cc(NCC2COCCN2C)cc(Nc2ncn(-c3cc(F)cc(F)c3)n2)c1` (centres unmarked) [Compound 1062, N1-[1-(3,5-difluorophenyl)-1,2,4-triazol-3-yl]-5-methyl-N3-[(4-methylmorpholin-3-yl)methyl]benzene-1,3-diamine]: under setting [4], the fold induction at 1 µM lay in the range of 10 to 100 and the fold induction at 10 µM was at most 1.

As to `COCC1CCN(c2cc(C)cc(Nc3ncn(-c4ccnc(F)c4)n3)c2)CC1` [Compound 122, 1-(2-fluoro-4-pyridyl)-N-[3-[4-(methoxymethyl)-1-piperidyl]-5-methyl-phenyl]-1,2,4-triazol-3-amine], under setting [2], the fold induction at 1 µM fell in the range of 10 to 100. In addition, the fold induction at 10 µM under setting [3] lay in the range of 1000 to 10000.

For `Cc1cc(Nc2ncn(-c3cc(F)cc(N4CCC(CO)C4)c3)n2)cc(N2CCN(C3COC3)CC2)c1` (centres unmarked) [Compound 480, [1-[3-fluoro-5-[3-[3-methyl-5-[4-(oxetan-3-yl)piperazin-1-yl]anilino]-1,2,4-triazol-1-yl]phenyl]pyrrolidin-3-yl]methanol], under setting [1], the fold induction at 1 µM lay within 10 to 100 and the fold induction at 10 µM was at most 1.

For `COc1cc(Nc2ncn(-c3ccc(F)c(F)c3)n2)cc(N2CCN(C3COC3)CC2)c1` [Compound 183, 1-(3,4-difluorophenyl)-N-[3-methoxy-5-[4-(oxetan-3-yl)piperazin-1-yl]phenyl]-1,2,4-triazol-3-amine], the fold induction at 1 µM under setting [2] lay within 100 to 1000. Under setting [3], the fold induction at 10 µM was 10 to 100.

As for `CCN1CCCC(Nc2cc(C)cc(Nc3ncn(-c4cc(F)cc(F)c4)n3)c2)C1` (centres unmarked) [Compound 897, N3-[1-(3,5-difluorophenyl)-1,2,4-triazol-3-yl]-N1-(1-ethyl-3-piperidyl)-5-methyl-benzene-1,3-diamine], under setting [4], the fold induction at 1 µM is 1 to 10 and the fold induction at 10 µM was at most 1.

As to `Cc1cc(Nc2ncn(-c3cc(F)cc(F)c3)n2)cc(OCC2(C)COC2)c1` [Compound 677, 1-(3,5-difluorophenyl)-N-[3-methyl-5-[(3-methyloxetan-3-yl)methoxy]phenyl]-1,2,4-triazol-3-amine], under setting [1], the fold induction at 1 µM was 100 to 1000 and the fold induction at 10 µM was at most 1.

For `Cc1cc(Nc2ncn(-c3ccccc3)n2)cc(N2CCN(C3(C)COC3)CC2)c1` [Compound 436, N-[3-methyl-5-[4-(3-methyloxetan-3-yl)piperazin-1-yl]phenyl]-1-phenyl-1,2,4-triazol-3-amine], under setting [1], the fold induction at 1 µM fell in the range of 1000 to 10000 and the fold induction at 10 µM lay within 100 to 1000.

In the case of `COCc1cc(Nc2ncn(-c3cccc(C(F)(F)F)c3)n2)nc(N2CCN(C3COC3)CC2)c1` [Compound 625, 4-(methoxymethyl)-6-[4-(oxetan-3-yl)piperazin-1-yl]-N-[1-[3-(trifluoromethyl)phenyl]-1,2,4-triazol-3-yl]pyridin-2-amine], under setting [1], the fold induction at 1 µM is 1 to 10 and the fold induction at 10 µM fell in the range of 10 to 100.

As for `Cc1cc(Nc2ncn(-c3cc(F)cc(F)c3)n2)c(C)c(N2CCN(C3COC3)CC2)c1` [Compound 697, 1-(3,5-difluorophenyl)-N-[2,5-dimethyl-3-[4-(oxetan-3-yl)piperazin-1-yl]phenyl]-1,2,4-triazol-3-amine], under setting [1], the fold induction at 1 µM was 1 to 10 and the fold induction at 10 µM was 10 to 100.
